IC50 and Kd data for four compounds are collected here from publication PMC9488896, “Hydroxamic Acid-Modified Peptide Library Provides Insights into the Molecular Basis for the Substrate Selectivity of HDAC Corepressor Complexes” (ACS Chemical Biology, 2022).

Like-named read-outs stand apart in the source and are kept apart here. Residues, ends and D or L forms follow the SMILES beside them.

Test [1] concerns the target T1, HDAC1/MTA1(aa: 162–546)/RBBP4 core NuRD complex (HMR) (Homo sapiens, UniProt Q09028+Q13330+Q13547).
T1 construct: made in house; host or cells: HEK293F
Kind of test: Boc-Lys HDAC inhibition assay. The class given is biochemical. As to conditions: 50 nM complex, 100 μM Boc-(Ac)Lys-AMC, 37 °C 30 min, technical replicates N = 2. Here is the method:
(§1) Inhibition assays with various peptide inhibitors were performed using a fluorescence-based assay. The inhibitor peptides were initially dissolved in 5% dimethyl sulfoxide (DMSO) at a stock concentration of 25 mM before being further diluted in the HDAC assay buffer (50 mM Tris/HCl, pH 7.5, 150 mM NaCl). Serial dilutions (1:3) of the inhibitor were prepared, starting at a concentration of 500 μM. HDAC complexes were diluted to a final concentration of 50 nM and incubated with the inhibitor for 20 min at rt. The Boc-(Ac)Lys-AMC substrate was added at a final concentration of 100 μM The final volume of the reaction was 50 μL. The reaction was incubated at 37 °C, 150 rpm, for 30 min, before a developer (50 mM Tris, pH 7.5, 100 mM NaCl, 10 mg/mL trypsin) was added. The reaction was incubated with the developer for 10 min before being measured (PerkinElmer, 2030 multilabel reader, VICTOR X5, excitation 335 nm, emission 460 nm). The absorbance of the buffer as the blank control was subtracted from the HDAC activity, and IC50 calculations were performed using the nonlinear regression log(inhibitor) vs response equation Y = bottom + (top – bottom)/(1+10^(X–Log IC50)) in Graphpad Prism 9.

The next test addresses T2, Sin3A complex (Homo sapiens, UniProt Q13547).
T2 construct: made in house; host or cells: HEK293F
In words: Boc-Lys HDAC inhibition assay. Conditions: HDAC complexes tables; 50 nM complex, 100 μM Boc-(Ac)Lys-AMC, 37 °C 30 min; technical replicates N = 2. The class given is biochemical.
From the text: (§2) Finally, we directed our attention toward assessing how the results from the experiments with HMR would be common to the other known class I HDAC corepressor complexes. RERE, MIER1, CoREST, HMR, MiDAC, Sin3A, and SMRT were expressed and purified, and the concentrations were normalized based on the concentration of HDAC1 or HDAC3 (Figure 4A). We determined the potency of H3(23–29)K27Hd 12 and H4(12–18)K16Hd 16 against RERE, MIER1, CoREST, NuRD, MiDAC, Sin3A, and SMRT (Figure 4B). In addition, we repeated the H3(23–29)K27Hd alanine scan experiment for each of these complexes to assess whether or not the importance of Lys23 for maintaining potency against HMR was replicated across the other complexes (Figure 4C).
as §1

A further test concerns the target T3, CoREST complex (Homo sapiens, UniProt Q13547+Q9UKL0).
T3 construct: made in house; host or cells: HEK293F
Kind of test: Boc-Lys HDAC inhibition assay. The test is classed as biochemical. As to conditions: HDAC complexes tables; 50 nM complex, 100 μM Boc-(Ac)Lys-AMC, 37 °C 30 min; technical replicates N = 2.
From the text: as §2, §1

Another test addresses T4, MiDAC complex (Homo sapiens, UniProt Q13547+Q6PJG2+Q9H147).
T4 construct: made in house; host or cells: HEK293F
Kind of test: Boc-Lys HDAC inhibition assay. The test is classed as biochemical. As to conditions: HDAC complexes tables; 50 nM complex, 100 μM Boc-(Ac)Lys-AMC, 37 °C 30 min; technical replicates N = 2.
From the text: as §2, §1

A further test concerns the target T5, MIER1 complex (Homo sapiens, UniProt Q13547+Q8N108).
T5 construct: made in house; host or cells: HEK293F
In words: Boc-Lys HDAC inhibition assay. The class given is biochemical. Conditions: HDAC complexes tables; 50 nM complex, 100 μM Boc-(Ac)Lys-AMC, 37 °C 30 min; technical replicates N = 2.
From the text: as §2, §1

A further test concerns the target T6, RERE complex (Homo sapiens, UniProt Q13547+Q9P2R6).
T6 construct: made in house; host or cells: HEK293F
In words: Boc-Lys HDAC inhibition assay. Conditions: HDAC complexes tables; 50 nM complex, 100 μM Boc-(Ac)Lys-AMC, 37 °C 30 min; technical replicates N = 2. The class given is biochemical.
From the text: as §2, §1

For a further test, the target named is T7, SMRT complex (HDAC3) (Homo sapiens, UniProt O15379).
T7 construct: made in house; host or cells: HEK293F
In words: Boc-Lys HDAC inhibition assay. The class given is biochemical. As to conditions: HDAC complexes tables; 50 nM complex, 100 μM Boc-(Ac)Lys-AMC, 37 °C 30 min; technical replicates N = 2.
From the text: as §2, §1

The target in a further test is T8, HMR complex (Homo sapiens, UniProt Q09028+Q13330+Q13547).
T8 construct: made in house; host or cells: HEK293F
In words: Fluorescence polarization binding assay. Conditions: 10 nM FTU-labeled peptide, increasing HMR, 30 min rt; one-site binding fit; technical replicates N = 2; read-out: KD of Fluorescein-labelled peptides against HMR. Here is the method:
We aimed first to validate the results of the activity assay with the hydroxamic acid-containing peptides in terms of binding kinetics. To this end, we designed and synthesized fluorescein-labeled analogues (FTU) of the key peptides identified from the inhibition assay: FTU-H3(6−12)K9Hd 17, FTU-H3(23–29)K27Hd 18, FTU-H4(8−14)K12Hd 19, and FTU-H4(12−18)K16Hd 20. […] These peptides were then tested in an FP assay to measure their binding affinity for the HMR complex (Figure 2D).
The fluorescence polarization assay was performed using 96-well black plates (Corning). FTU (10 nM)-labeled peptides (peptides 17–20) were incubated with increasing concentrations of HMR for 30 min at rt. The plate was shaken before being read on a Victor X5 Plate reader (Perkin Elmer). […] values were calculated using the nonlinear regression one-site binding equation Y = Bmax × X/(KD + X) using Graphpad Prism 9.

Setting [2] is: alanine scan / H4K12Hd experiments, 20 min preincubation rt, read-out: IC50 of HMR against H3 K27Hd, H4 K16Hd and H4K12Hd peptides.

T5 sequence (Q13547 whole entry): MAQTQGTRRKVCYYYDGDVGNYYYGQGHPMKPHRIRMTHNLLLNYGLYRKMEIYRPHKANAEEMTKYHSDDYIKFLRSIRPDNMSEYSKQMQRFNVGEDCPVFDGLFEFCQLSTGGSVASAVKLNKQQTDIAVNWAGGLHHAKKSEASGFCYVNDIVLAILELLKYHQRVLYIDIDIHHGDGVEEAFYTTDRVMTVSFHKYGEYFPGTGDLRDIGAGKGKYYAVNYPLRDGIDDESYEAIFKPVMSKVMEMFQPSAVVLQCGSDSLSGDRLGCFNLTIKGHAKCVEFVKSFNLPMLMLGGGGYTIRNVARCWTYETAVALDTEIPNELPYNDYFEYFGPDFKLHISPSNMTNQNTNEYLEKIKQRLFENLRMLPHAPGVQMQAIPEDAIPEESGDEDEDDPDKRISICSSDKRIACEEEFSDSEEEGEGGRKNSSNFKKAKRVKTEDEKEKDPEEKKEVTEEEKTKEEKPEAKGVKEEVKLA
T5 sequence (Q8N108 whole entry partner): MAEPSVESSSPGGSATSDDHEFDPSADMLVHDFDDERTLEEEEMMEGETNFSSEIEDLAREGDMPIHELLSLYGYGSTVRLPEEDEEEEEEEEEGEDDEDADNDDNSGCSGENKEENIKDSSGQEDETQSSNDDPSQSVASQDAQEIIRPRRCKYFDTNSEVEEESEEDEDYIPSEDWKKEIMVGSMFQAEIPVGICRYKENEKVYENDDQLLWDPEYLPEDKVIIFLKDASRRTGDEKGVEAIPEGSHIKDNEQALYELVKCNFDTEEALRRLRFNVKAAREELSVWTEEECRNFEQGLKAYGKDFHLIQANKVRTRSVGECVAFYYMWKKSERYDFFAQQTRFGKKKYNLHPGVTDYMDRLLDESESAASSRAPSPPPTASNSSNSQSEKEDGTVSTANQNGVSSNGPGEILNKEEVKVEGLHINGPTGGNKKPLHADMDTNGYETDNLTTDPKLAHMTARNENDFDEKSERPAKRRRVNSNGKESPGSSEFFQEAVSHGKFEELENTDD
T1 sequence (Q13547 whole entry, species assumed): as the sequence (Q13547 whole entry) above
T1 sequence (Q13330 162-546 partner limits assumed, species assumed): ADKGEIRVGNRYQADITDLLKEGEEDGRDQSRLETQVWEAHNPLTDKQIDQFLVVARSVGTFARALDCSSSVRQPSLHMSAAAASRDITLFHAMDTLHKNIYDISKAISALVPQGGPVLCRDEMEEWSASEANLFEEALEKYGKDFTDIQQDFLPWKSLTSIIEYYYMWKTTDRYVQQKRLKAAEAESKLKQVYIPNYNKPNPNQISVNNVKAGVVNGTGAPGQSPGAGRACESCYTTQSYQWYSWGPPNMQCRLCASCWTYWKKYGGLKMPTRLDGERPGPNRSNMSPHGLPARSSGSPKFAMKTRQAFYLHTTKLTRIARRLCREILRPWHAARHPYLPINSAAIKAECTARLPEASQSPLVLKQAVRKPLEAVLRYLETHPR
T1 sequence (Q09028 whole entry partner, species assumed): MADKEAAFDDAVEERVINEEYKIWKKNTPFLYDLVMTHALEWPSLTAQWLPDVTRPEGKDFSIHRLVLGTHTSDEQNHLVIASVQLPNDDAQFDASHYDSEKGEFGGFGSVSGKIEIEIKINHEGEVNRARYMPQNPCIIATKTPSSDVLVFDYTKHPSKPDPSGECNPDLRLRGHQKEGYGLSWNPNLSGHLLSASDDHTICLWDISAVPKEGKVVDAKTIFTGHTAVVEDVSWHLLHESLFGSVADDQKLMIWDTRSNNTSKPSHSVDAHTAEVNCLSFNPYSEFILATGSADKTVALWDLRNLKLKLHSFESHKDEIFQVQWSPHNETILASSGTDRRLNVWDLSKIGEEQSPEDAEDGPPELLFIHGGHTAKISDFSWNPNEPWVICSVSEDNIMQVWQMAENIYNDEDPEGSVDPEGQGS
T4 sequence (Q13547 whole entry): as the sequence (Q13547 whole entry) above
T4 sequence (Q6PJG2 628-887 partner limits assumed): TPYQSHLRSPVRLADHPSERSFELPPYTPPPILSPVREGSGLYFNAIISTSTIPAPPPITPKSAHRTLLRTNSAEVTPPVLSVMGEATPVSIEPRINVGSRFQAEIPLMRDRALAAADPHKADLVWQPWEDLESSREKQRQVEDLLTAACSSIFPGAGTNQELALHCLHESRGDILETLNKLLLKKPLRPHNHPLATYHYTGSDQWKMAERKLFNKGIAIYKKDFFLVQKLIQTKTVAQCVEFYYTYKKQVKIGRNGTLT
T4 sequence (Q9H147 whole entry partner): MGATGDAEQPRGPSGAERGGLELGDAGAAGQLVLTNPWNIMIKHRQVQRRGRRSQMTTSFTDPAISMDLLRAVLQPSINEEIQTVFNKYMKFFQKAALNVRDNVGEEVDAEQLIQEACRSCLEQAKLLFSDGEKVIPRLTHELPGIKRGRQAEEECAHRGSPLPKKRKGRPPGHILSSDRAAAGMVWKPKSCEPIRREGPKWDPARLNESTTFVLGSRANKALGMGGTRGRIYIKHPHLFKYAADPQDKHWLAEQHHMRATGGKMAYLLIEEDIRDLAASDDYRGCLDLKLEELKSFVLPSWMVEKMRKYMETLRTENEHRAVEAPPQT
T6 sequence (Q13547 whole entry): as the sequence (Q13547 whole entry) above
T6 sequence (Q9P2R6 whole entry partner): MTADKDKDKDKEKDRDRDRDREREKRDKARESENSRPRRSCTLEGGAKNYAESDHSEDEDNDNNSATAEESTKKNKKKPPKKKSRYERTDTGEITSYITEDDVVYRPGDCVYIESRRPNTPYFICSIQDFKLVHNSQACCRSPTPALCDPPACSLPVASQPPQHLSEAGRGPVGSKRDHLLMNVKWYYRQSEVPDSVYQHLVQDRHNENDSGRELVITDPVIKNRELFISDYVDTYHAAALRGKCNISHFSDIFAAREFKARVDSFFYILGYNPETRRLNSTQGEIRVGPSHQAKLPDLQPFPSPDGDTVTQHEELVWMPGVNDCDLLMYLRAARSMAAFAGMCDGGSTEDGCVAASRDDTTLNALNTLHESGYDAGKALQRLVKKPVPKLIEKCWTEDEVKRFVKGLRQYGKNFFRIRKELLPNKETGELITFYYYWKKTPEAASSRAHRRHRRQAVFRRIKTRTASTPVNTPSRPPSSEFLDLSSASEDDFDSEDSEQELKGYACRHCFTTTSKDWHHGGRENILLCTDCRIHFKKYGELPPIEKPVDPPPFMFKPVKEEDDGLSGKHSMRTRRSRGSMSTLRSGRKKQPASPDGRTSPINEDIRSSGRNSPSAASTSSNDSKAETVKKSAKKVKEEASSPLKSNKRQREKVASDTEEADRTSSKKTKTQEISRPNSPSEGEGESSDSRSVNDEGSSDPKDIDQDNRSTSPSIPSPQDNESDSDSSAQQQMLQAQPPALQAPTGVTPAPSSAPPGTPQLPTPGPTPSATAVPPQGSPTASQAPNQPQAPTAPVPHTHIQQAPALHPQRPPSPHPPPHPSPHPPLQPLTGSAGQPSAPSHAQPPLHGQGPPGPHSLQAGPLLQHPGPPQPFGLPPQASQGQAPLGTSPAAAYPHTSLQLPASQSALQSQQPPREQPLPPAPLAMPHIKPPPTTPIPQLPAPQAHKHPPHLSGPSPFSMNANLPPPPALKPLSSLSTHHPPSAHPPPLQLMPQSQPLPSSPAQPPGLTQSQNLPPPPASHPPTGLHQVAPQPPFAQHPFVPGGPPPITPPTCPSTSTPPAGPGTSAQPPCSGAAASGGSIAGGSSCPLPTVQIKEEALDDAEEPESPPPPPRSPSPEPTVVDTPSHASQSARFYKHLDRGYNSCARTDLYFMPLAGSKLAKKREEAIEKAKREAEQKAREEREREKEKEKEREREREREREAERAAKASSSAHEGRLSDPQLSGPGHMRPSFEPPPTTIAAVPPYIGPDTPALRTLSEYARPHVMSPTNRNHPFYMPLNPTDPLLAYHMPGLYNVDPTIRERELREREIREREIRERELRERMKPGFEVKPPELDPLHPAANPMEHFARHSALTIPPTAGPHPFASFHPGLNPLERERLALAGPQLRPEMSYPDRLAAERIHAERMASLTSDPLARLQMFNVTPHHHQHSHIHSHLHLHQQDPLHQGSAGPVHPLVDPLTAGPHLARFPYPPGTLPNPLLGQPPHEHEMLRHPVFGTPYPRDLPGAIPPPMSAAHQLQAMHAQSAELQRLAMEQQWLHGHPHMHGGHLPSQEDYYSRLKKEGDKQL
T7 sequence (O15379 whole entry, species assumed, one chain of several): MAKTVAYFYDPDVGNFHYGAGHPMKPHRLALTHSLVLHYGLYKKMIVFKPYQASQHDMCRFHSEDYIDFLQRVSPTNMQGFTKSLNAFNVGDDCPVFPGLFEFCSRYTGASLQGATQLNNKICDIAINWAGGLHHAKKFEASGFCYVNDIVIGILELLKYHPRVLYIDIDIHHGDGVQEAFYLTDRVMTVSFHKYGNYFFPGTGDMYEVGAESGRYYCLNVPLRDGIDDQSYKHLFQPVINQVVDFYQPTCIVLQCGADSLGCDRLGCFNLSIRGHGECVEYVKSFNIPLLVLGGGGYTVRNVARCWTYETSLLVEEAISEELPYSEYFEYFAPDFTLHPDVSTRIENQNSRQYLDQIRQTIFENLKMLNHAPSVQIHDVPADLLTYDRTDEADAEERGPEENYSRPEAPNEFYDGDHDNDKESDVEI
T3 sequence (Q13547 whole entry, other chains not shown): as the sequence (Q13547 whole entry) above
T3 sequence (Q9UKL0 86-485 partner limits assumed, other chains not shown): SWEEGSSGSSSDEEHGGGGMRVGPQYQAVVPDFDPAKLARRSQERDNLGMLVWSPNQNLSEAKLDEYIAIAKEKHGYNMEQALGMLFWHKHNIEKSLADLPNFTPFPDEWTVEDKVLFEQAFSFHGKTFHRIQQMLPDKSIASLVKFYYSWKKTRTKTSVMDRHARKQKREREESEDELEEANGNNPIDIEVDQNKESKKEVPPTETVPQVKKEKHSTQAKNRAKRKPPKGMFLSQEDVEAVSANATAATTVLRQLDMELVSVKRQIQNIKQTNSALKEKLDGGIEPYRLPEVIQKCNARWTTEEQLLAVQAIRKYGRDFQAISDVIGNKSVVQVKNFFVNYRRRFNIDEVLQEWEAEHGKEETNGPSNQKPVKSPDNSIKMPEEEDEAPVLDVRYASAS

On to `CC(=O)N[C@@H](CCCCN)C(=O)N[C@@H](C)C(=O)N[C@@H](C)C(=O)N[C@@H](CCCNC(=N)N)C(=O)N[C@@H](CCCCCC(=O)NO)C(=O)N[C@@H](C)C(=O)N[C@@H](C)C(N)=O` [compound 23, H3 (23-29) K27Hd S28A] (HELM PEPTIDE1{[ac].K.A.A.R.[O=C([C@H](CCCCCC(=O)[*:3])N[*:1])[*:2]].A.A.[am]}|CHEM1{[ON[*:1]]}$PEPTIDE1,CHEM1,6:R3-1:R1$$$V2.0), for which the IC50 in test [1] (setting [2]) is 308 nM; against Sin3A complex it was 272 nM; against CoREST complex it was 234 nM; against MiDAC complex it was 480 nM; on MIER1 complex it was 342 nM; against RERE complex, 408 nM. The IC50 at SMRT complex (HDAC3) is 379 nM.

For `CC(=O)N[C@@H](CCCCN)C(=O)NCC(=O)N[C@@H](CC(C)C)C(=O)NCC(=O)N[C@@H](CCCCCC(=O)NO)C(=O)NCC(=O)NCC(N)=O` [compound 27, H4(8–14)K12Hd] (HELM PEPTIDE1{[ac].K.G.L.G.[O=C([C@H](CCCCCC(=O)[*:3])N[*:1])[*:2]].G.G.[am]}|CHEM1{[ON[*:1]]}$PEPTIDE1,CHEM1,6:R3-1:R1$$$V2.0), on HMR complex, the dissociation constant Kd was determined as 288 nM.

Consider `CC(=O)N[C@@H](CCCCN)C(=O)N[C@@H](C)C(=O)N[C@@H](C)C(=O)N[C@@H](CCCNC(=N)N)C(=O)N[C@@H](CCCCCC(=O)NO)C(=O)N[C@@H](CO)C(=O)N[C@@H](C)C(N)=O` [compound 12, H3(23–29)K27Hd] (HELM PEPTIDE1{[ac].K.A.A.R.[O=C([C@H](CCCCCC(=O)[*:3])N[*:1])[*:2]].S.A.[am]}|CHEM1{[ON[*:1]]}$PEPTIDE1,CHEM1,6:R3-1:R1$$$V2.0), for which the concentration for half-maximal inhibition (IC50) in test [1] (HDAC complexes tables, read-out: IC50, HMR (NuRD)) came out at 50 nM; in test [1] (setting [2]), 133 nM; in test [1] (inhibitor library experiment, 20 min preincubation rt, fluorescence, read-out: IC50 of HMR against histone peptide library), 134 nM; on Sin3A complex, 145 nM; against MiDAC complex, 151 nM; at MIER1 complex, 106 nM. Moreover, the results for the IC50 at RERE complex and at SMRT complex (HDAC3) were 209 nM and 128 nM, respectively. Further, the Kd at HMR complex was found to be 60 nM.

Regarding `CC(=O)N[C@@H](C)C(=O)N[C@@H](C)C(=O)N[C@@H](C)C(=O)N[C@@H](CCCNC(=N)N)C(=O)N[C@@H](CCCCCC(=O)NO)C(=O)N[C@@H](CO)C(=O)N[C@@H](C)C(N)=O` [compound 21, H3(23–29)K23A K27Hd] (HELM PEPTIDE1{[ac].A.A.A.R.[O=C([C@H](CCCCCC(=O)[*:3])N[*:1])[*:2]].S.A.[am]}|CHEM1{[ON[*:1]]}$PEPTIDE1,CHEM1,6:R3-1:R1$$$V2.0), the half-maximal inhibitory concentration (IC50) in test [1] (setting [2]) amounted to 26200 nM; against Sin3A complex, 71600 nM; on CoREST complex it was 18300 nM; on MiDAC complex, 18100 nM; on MIER1 complex, 20100 nM; against RERE complex, 28700 nM. 17400 nM corresponded to half-maximal inhibition against SMRT complex (HDAC3) (IC50).

A word on the IC50: it is the point on the concentration scale where inhibition reaches its midpoint. What is called Kd is the concentration at which binding is half-saturated.
